Reference: patent US12686664B2, “SOCE inhibitors and therapeutic uses thereof” (Institut National de la Santé et de la Recherche Médicale …, priority 2020, dated 2026)
pIC50: −log10 of the molar value. Counter-ions that a name gives are not always drawn. Like-named read-outs stand apart in the source and are kept apart here. Marks after values point to notes of the source that are not given here.

Tested on: store-operated Ca^2+ entry in PLP-B lymphocytes
Experiment: Store-operated Ca2+ entry after thapsigargin depletion of ER Ca2+ stores in PLP-B lymphocytes
Type: cell-based
Method: The effects of the molecules developed were tested on PLP-B lymphocytes. Store-operated Ca^2+ entry was induced by depletion of Endoplasmic Reticulum Ca^2+ stores (ER Ca^2+ stores) with thapsigargin (Tg) in a Ca^2+-free medium and measured following the addition of 1.8 mM of CaCl2) in the extracellular medium. The results are compared to the results obtained for known SOCE inhibitors SKF-96365, GSK-7975A, Synta 66.

[1] = Lymphocyte, 10 μM, PLP-B lymphocytes, % of inhibition (−) or activation, DMSO control 100%, read-out: Effect on amplitude of SOCE Peak
[2] = Lymphocyte, 10 μM, thapsigargin (Tg) peak, PLP-B lymphocytes, % of inhibition (−) or activation, read-out: Effect on amplitude of Tg Peak
[3] = Lymphocyte, 50 μM, PLP-B lymphocytes, % of inhibition (−) or activation, DMSO control 100%, read-out: Effect on amplitude of SOCE Peak
[4] = Lymphocyte, 50 μM, thapsigargin (Tg) peak, PLP-B lymphocytes, % of inhibition (−) or activation, read-out: Effect on amplitude of Tg Peak
[5] = Lymphocyte, 100 μM, PLP-B lymphocytes, % of inhibition (−) or activation, DMSO control 100%, read-out: Effect on amplitude of SOCE Peak
[6] = Lymphocyte, 100 μM, thapsigargin (Tg) peak, PLP-B lymphocytes, % of inhibition (−) or activation, read-out: Effect on amplitude of Tg Peak
[7] = Lymphocyte, PLP-B lymphocytes, % of inhibition (−) or activation, DMSO control 100%, read-out: Effect on amplitude of SOCE Peak
[8] = Lymphocyte, 1 μM, PLP-B lymphocytes, % of inhibition (−) or activation, DMSO control 100%, read-out: Effect on amplitude of SOCE Peak
[9] = Lymphocyte, 1 μM, thapsigargin (Tg) peak, PLP-B lymphocytes, % of inhibition (−) or activation, read-out: Effect on amplitude of Tg Peak
[10] = Lymphocyte, thapsigargin (Tg) peak, PLP-B lymphocytes, % of inhibition (−) or activation, read-out: Effect on amplitude of Tg Peak

Row | Structure (SMILES) | inhibition at 10 µM [1] | inhibition at 10 µM [2] | inhibition at 50 µM [3] | inhibition at 50 µM [4] | inhibition at 100 µM [5] | inhibition at 100 µM [6] | also measured
1 | Oc1ccc(CCn2ncc3ccccc32)cc1 [12αe, 1-(4-Hydroxyphenylethyl)-1H-indazole hydrochloride] | 5% | 11% | 18% | 29% | 8% | 28% | 
2 | COc1ccc(CCCOc2cccc(CCn3ccc(C(F)(F)F)n3)c2)cc1 [6βy DAD 3.531] | 13% | 17% | 34% | 23% | 64% | 30% | 
3 | c1ccc(CCCOc2ccc(CCn3cnc4ccccc43)cc2)cc1 [6αm DAD 3-475] |  |  | 4% | -7% | 77% | -7% | 
4 | COc1ccc(CCCOc2ccc(CCn3c(C(F)(F)F)nc4cc(N)ccc43)cc2)cc1 [6αu VAL 1-75] | -6% | -5% | 30% | -11% | 68% | -5% | 
5 | COc1ccc(COc2ccc(CCn3c(C(F)(F)F)nc4cc(N)ccc43)cc2)cc1 [6αt VAL 1-76] | 3% | -1% | 10% | -6% | 34% | 22% | 
6 | COc1ccc(COc2ccc(CCn3cccn3)cc2)cc1 [6βm DAD 2.306] | -2% |  | -0.5% |  | -16.8% |  | 
7 | Oc1ccc(Cn2c(C(F)(F)F)nc3ccccc32)cc1 [9αc, 1-(4-hydroxyphenylmethyl)-2-trifluoromethyl-1H-Benzo[d]imidazol] | 23% | 6% | 16% | -1% | 33% | -6% | 
8 | Oc1ccc(CCOc2ccc(CCn3cnc4ccccc43)cc2)cc1 [12αb, 1-(4-(4-Hydroxyphenethoxy)phenethyl)-1H-benzo[d]imidazol hydrochloride] | -25% | -7% | -1% | -4% | 3% |  | percent change in peak amplitude vs DMSO control (negative = inhibition, positive = activation) at 100 µM [6]: 0%
9 | COc1ccc(COc2ccc(CCn3cnc4ccccc43)cc2)cc1 [6αz DAD 4-472] | 15.4% | 1.6% | 13.7% | 1.9% | -5.9% | 1.5% | 
10 | c1ccc(OCCCOc2ccc(CCn3cnc4ccccc43)cc2)cc1 [6αs DAD 4-570] | 9.4% | 10.6% | 19% | -0.7% | 56.9% | 4.1% | 
11 | COc1ccc(CCOc2ccc(CCn3nc(C(F)(F)F)cc3C(F)(F)F)cc2)cc1 [6βv DAD 2.266] |  |  | 29% |  | 30% |  | 
12 | FC(F)(F)c1ncn(CCc2ccc(OCCCc3ccccc3)cc2)n1 [6βi DAD 3.475] |  |  | 13% | 6% | 43% | 7% | 
13 | CS(=O)(=O)Oc1ccc(Cn2cccn2)cc1 [8βa, 4-((1H-Pyrazol-1-yl)methyl)phenylmethanesulfonate] |  |  |  |  |  |  | Effect on amplitude of SOCE peak (10 μM, PLP-B lymphocytes, % of inhibition (−) or activation, DMSO control 100%): −30.0# %; Effect on amplitude of Tg Peak (10 μM, thapsigargin (Tg) peak, PLP-B lymphocytes, % of inhibition (−) or activation): −20.0# %; Effect on amplitude of SOCE peak (50 μM, PLP-B lymphocytes, % of inhibition (−) or activation, DMSO control 100%): −27.0# %; Effect on amplitude of Tg Peak (50 μM, thapsigargin (Tg) peak, PLP-B lymphocytes, % of inhibition (−) or activation): −14.0// %; Effect on amplitude of SOCE peak (100 μM, PLP-B lymphocytes, % of inhibition (−) or activation, DMSO control 100%): −25.0# %; Effect on amplitude of Tg Peak (100 μM, thapsigargin (Tg) peak, PLP-B lymphocytes, % of inhibition (−) or activation): −12.0// %
14 | COc1ccc(CCOc2ccc(CCn3cnc4c(Cl)cc(C(F)(F)F)cc43)cc2)cc1 [6αe DAD 4-548, 4-Chloro-1-(4-(4-methoxyphenethoxy)phenethyl)-6-(trifluoromethyl)-1H-benzo[d]imidazole] |  |  | 28% | -5% | 9% | -1% | 
15 | COc1cccc(CCOc2ccc(CCn3cnc4ccccc43)cc2)c1 [6αad DAD 4-567] | 28.1% | 5.7% | 81.7% | 9.1% | 84.3% |  | inhibition at 0.1 µM [7]: -12.9%; inhibition at 1 µM [8]: -2.9%; inhibition at 1 µM [9]: 16.2%
16 | FC(F)(F)c1cc(C(F)(F)F)n(CCc2ccccc2OCCc2ccccc2)n1 [6βaa DAD 3.535] | 18% | 8% | 20% | 4% | 29% | 11% | 
17 | COc1ccc(CCOc2ccc(CCn3ncc4ccccc43)cc2)cc1 [6αb DAD 4-573, 1-(4-(4-Methoxyphenethoxy)phenethyl)-1H-indazole] | -14% | 8% |  | 5% | 30% | 22% | percent change in peak amplitude vs DMSO control (negative = inhibition, positive = activation) at 50 µM [3]: 0%
18 | c1ccc(OCCOc2ccc(CCn3cnc4ccccc43)cc2)cc1 [6αae DAD 4-569] | -7.5% | 11.3% | -13.1% | 7.6% | 12.4% | 12% | 
19 | COc1ccc(CCOc2cccc(CCn3cnc4ccccc43)c2)cc1 [6αp DAD 4-552] |  |  | 29% | 15% | 71% | 7% | 
20 | c1ccc(CCOc2ccc(CCn3cnc4ccccc43)cc2)cc1 [6αab DAD 4-553] |  |  | 2% | 1% | 46% | 8% | 
21 | COc1ccc(CCOc2ccc(CCn3cccn3)cc2)cc1 [6βn DAD 2.307] | -6.5% |  | 7.2% |  | 62% |  | 
22 | c1ccc2c(c1)ncn2CCc1ccc(OCCc2ccc(OC3CCCCO3)cc2)cc1 (centres unmarked) [11αb, 1-(4-(4-((Tetrahydro-2H-pyran-2-yl)oxy)phenethoxy)phenethyl)-1H-benzo[d]imidazole] | 29% | -2% | 51% | 2% |  |  | inhibition at 0.1 µM [7]: -28%; inhibition at 0.1 µM [10]: -11%; inhibition at 1 µM [8]: -41%; percent change in peak amplitude vs DMSO control (negative = inhibition, positive = activation) at 1 µM [9]: 0%; inhibition at 5 µM [7]: -16%; inhibition at 5 µM [10]: 2%; pIC50 (Lymphocyte, SOCE in PLP-B lymphocytes, average of three assays, ±0.5 μM): 5.17
23 | COc1ccc(CCOc2ccccc2CCn2cnc3ccccc32)cc1 [6αo DAD 4-551] |  |  | 33% | 4% | 82% | -8% | 
24 | COc1ccc(CCOc2ccc(CCn3ccc(C(F)(F)F)n3)cc2)cc1 [Compound 6βs] | 13% |  | 34% | 6% | 64% | 10% | 
25 | COc1ccc(COc2ccc(CCn3nc(C(F)(F)F)cc3C(F)(F)F)cc2)cc1 [6βu DAD 2.334] | 2% |  | -0.2% |  | -0.4% |  | 
26 | CS(=O)(=O)Oc1ccc(Cn2cnc3ccccc32)cc1 [8αa, 4-((1H-Benzo[d]imidazol-1-yl)methyl)phenyl methanesulfonate] | 20% | -1% | 9% | -5% | 23% | 7% | 
27 | c1ncn(CCc2ccc(OC3CCCCO3)cc2)n1 (centres unmarked) [11βa, 1-(4-((Tetrahydro-2H-pyran-2-yl)oxy)phenethyl)-1H-1,2,4-triazole] | 32% | 20% | 31% | 17% | 16% | 3% | 
28 | COc1ccc(CCCOc2ccc(CCn3nc(C(F)(F)F)cc3C(F)(F)F)cc2)cc1 [6βw DAD 2.335] | 4.6% |  | -0.1% |  | 11.8% |  | 
